# What was measured:
# [1] = Therapeutic index, ratio of LD50 in Kunming mouse to ED50 for analgesic activity in mouse; assay type: organism-based; details: in vivo, read-out: Ratio LD50/ED50
# [2] = system: Mus musculus; assay: Analgesic activity in ig dosed mouse by hot plate test; assay type: functional; details: po
# [3] = Toxicity in ig dosed Kunming mouse; assay type: organism-based; details: in vivo, po
Structure (SMILES),selectivity ratio [1],ED50 [2] [mg/kg],LD50 [3] [mg/kg]
CCN1C[C@]2(COC)CC[C@H](OC)[C@@]34C1O[C@H](C=C1[C@H]5[C@@H](O)[C@H](C[C@H]53)[C@@H](OC)[C@H]1O)[C@H]24 [GUIWULINE],33,15,500
CCN1C[C@]2(COC)[C@H](O)C[C@H](OC)[C@@]34[C@@H]5C[C@@]6(O)[C@H](OC(=O)c7ccccc7)[C@@H]5[C@@](OC(C)=O)([C@@H]([C@H](OC)[C@H]23)[C@@H]14)[C@@H](O)[C@@H]6OC [ACONITINE],2,0.08,0.16
